# Calls of active or inactive are those of the source.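 The calls were made as follows: active = compounds giving half or more protection of infected cells from virus-caused growth loss, again on retest; inactive = the rest.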
# Tested on: CEM cells HIV-1 protection, formazan growth assay
# Assay: NCI AIDS Antiviral Assay
# Conditions: for IC50: measured here: growth of uninfected CEM cells
# How it was run: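 Five concentrations of each compound were applied to infected and uninfected human CEM cells. Protection from HIV-1 was judged from growth measured with a soluble formazan assay.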
Structure (SMILES),EC50 [µM],IC50 [µM],outcome
NC(N)=N/N=C/c1c(Cl)nc2n1CCS2,> 200,102,–
O=C(O)CC(NC(=O)Nc1ccc([N+](=O)[O-])cc1)C(=O)Nc1ccc([N+](=O)[O-])cc1 (configuration not stated),> 200,> 200,–
CC(=O)O[C@H]1CC[C@@]2(C)C(=CC[C@@H]3C2CC[C@]2(C)Nc4[nH]ncc4CC32)C1 (some centres not stated),–,–,inactive
CCCCCC=C(c1cc(Br)cc(C(=O)OC)c1OC)c1cc(Br)cc(C(=O)OC)c1OC,42.7,43.7,–
CC(=O)Oc1ccn2nc(C)c(Cc3c(C)nn4ccc(OC(C)=O)cc34)c2c1,> 200,28.2,–
CNC(=S)/C(=N\Nc1nc[nH]c1C(N)=O)C(N)=S,> 2,0.955,–
Clc1cc(Cl)c(NN=C(c2ccccc2)c2ccccc2)c(Cl)c1,> 200,> 200,–
CCCCCCCCCCCCCCCC=C(c1cc(Cl)c(O)c(C(=O)O)c1)c1cc(Cl)c(O)c(C(=O)O)c1,20.9,34.7,–
CC(=O)O[C@@H]1CC[C@@]2(C)C(=O)C34C[C@@]5(C)C([C@@H](C)CCCC(C)C)CCC5(C)[C@](O)(O3)C(=O)[C@H]4C2C1(C)C (some centres not stated),> 18.6,> 18.6,–
O=P1(OCC(F)(F)C(F)F)Oc2ccccc2O1,> 41.7,3.24,–
N#Cc1ccc(-c2ccc(Cl)cc2)n(C2OC(CO)C(O)C(O)C2O)c1=S (configuration not stated),> 200,> 200,–
CC(C)=CCC/C(C)=C/CC12OC(C)(C)C(Cl)CC1(Cl)C(=O)c1c(O)cc(O)cc1C2=O (configuration not stated),> 37.2,11,–
O=C1NC(O)c2cc(CO)ccc2O1 (configuration not stated),> 200,95.5,–
CCOC(=O)C(=[N+]=[N-])C(=O)CN1C(=O)c2ccccc2C1=O,> 437,> 437,–
Cc1coc2c1C(=O)C(=O)c1c-2ccc2c1CCCC2(C)C,> 200,25.7,–
O=C(/C(=N/N(C(=O)c1ccccc1)c1ccccc1)c1ccccc1)c1ccccc1,–,–,inactive
CC1CC2NC(C)CC3NC(C)CC(N1)N32 (configuration not stated),> 794,> 794,–

Structure (SMILES),EC50 [µM],IC50 [µM],outcome
Cc1cc(O)cc2c1CC=C1C(=C2)C(=O)C(=O)C(C(C)C)=C1O,–,–,inactive
CO/C=C/c1ccc2c(c1)OCO2,–,–,inactive
COc1cc2c(c(OC)c1OC)-c1ccc(NCCCNc3ccc4c(cc3=O)C(NC(C)=O)CCc3cc(OC)c(OC)c(OC)c3-4)c(=O)cc1C(NC(C)=O)CC2 (configuration not stated),–,–,inactive
Cc1c(C(=O)c2ccccc2)n(COCCCO[Si](C)(C)C(C)(C)C)c(=O)[nH]c1=O,> 200,11.7,–
CC(C)C/C(CC(=O)CCC(=O)Nc1ccccc1[N+](=O)[O-])=N\NC(=O)c1cc2ccccc2cc1O,> 70.8,11.7,–
CCOC(=O)c1ccc(C(=O)OCC)n1-c1cc2cc(c1)CSCc1cc(cc(-n3c(C(=O)OCC)ccc3C(=O)OCC)c1)CSC2,> 200,> 200,–
NNC(=O)CNC(=O)CSc1nnc(COc2ccc(Cl)cc2)n1-c1ccccc1,> 200,56.2,–
COCn1c(C(=O)c2ccc(OC)cc2)cc2ccccc21,> 33.9,> 33.9,–
CCc1cccc(C)c1NS(=O)(=O)c1ccccc1,–,–,inactive
CCCC[N+](CCCC)(CCCC)C1=C([O-])C(F)(F)C1=O,> 200,> 200,–
C#CCN(Cc1ccc2nc(-c3ccccc3)c(Cl)nc2c1)c1cc(OC)c(OC)c(OC)c1,> 7.94,> 7.94,–
O=C(O)Cc1ccc(-c2cn3c(n2)sc2ccccc23)cc1,> 200,> 200,–
Cn1c2ccccc2c2oc(-c3nn[nH]n3)cc(=O)c21,> 126,> 126,–
COc1cccc(/C=C(\C#N)C(=O)O)c1,> 1230,158,–
CCN(/N=C1\CC2C=CCN(C2)C(=O)Cc2c1[nH]c1ccccc21)S(=O)(=O)c1ccc(C)cc1 (configuration not stated),> 63.1,60.3,–
COc1ccc(/C=C/C(=O)Oc2ccccc2OC)cc1,> 200,0.398,–
NC(=O)NN=C1CSSC1,18.6,70.8,–

# Reference: PubChem BioAssay AID179 (DTP/NCI, 2004)
